Assay results: ChEMBL document CHEMBL5725609, “1H-pyrazolo[3,4-b]pyridines and therapeutic uses thereof” (2018)
Values joined by “and” are separate entries in the source; they are usually repeats but may differ in a detail not shown here. Identical values can stand only once.

Test: Wnt APC Inhibition Assay: Reporter cell lines can be generated by stably transducing cells of cancer cell lines (e.g., colon cancer) with a lentiviral construct that include a wnt-responsive promoter driving expression of the firefly luciferase gene.Lentiviral constructs can be made in which the SP5 promoter, a promoter having eight TCF/LEF binding sites derived from the SP5 promoter, is linked upstream of the firefly luciferase gene. The lentiviral constructs can also include a hygromycin resistance gene as a selectable marker. The SP5 promoter construct can be used to transduce SW480 cells, a colon cancer cell line having a mutated APC gene that generates a truncated APC protein, leading to de-regulated accumulation of β-catenin. […] Compounds from a small molecule compound library can then be added to the wells in half-log dilutions using a ten micromolar top concentration. A series of control wells for each cell type receive only buffer and compound solvent. Twenty-four to forty hours after the addition of compound, reporter activity for luciferase can be assayed, for example, by addition of the BrightGlo luminescence reagent (Promega) and the Victor3 plate reader (Perkin Elmer). Readings can be normalized to DMSO only treated cells, and normalized activities can then be used in the IC50 calculations.

In the case of `CC(C)(C)C(=O)Nc1cncc(-c2cnc3[nH]nc(-c4nc5c(-c6cccc(F)c6)cncc5[nH]4)c3c2)c1`, the IC50 is reported as 38 nM and 6 nM.
